Measurements as given in US20130296425A1, “PROPHYLACTIC OR THERAPEUTIC AGENT FOR A PERIPHERAL NERVE DISORDER INDUCED BY ANTI-CANCER AGENTS” (NAGOYA INDUSTRIAL SCIENCE RESEARCH INSTITUTE, priority 2011, published 2013).

What was measured:
[1] = tested on: paclitaxel-induced peripheral nerve disorder rats; assay: Oral administration (suspension or α-CD inclusion complex), hyperalgesia by paclitaxel (von Frey test); assay type: in vivo, rat; details: for 50% reaction threshold value, after 5 hours from administration / AUC of 50% reaction threshold value over time, measured value: single dose; for 50% reaction threshold value, before administration: baseline
Protocol: A suspension ([…]) 5 mL of the compound 4 was mixed with a 1% α-CD aqueous solution followed by stirring overnight to prepare an α-CD inclusion complex of the compound 4.
With regard to male SD rats of six weeks age used as the experimental animals, the rats were organized into the following six groups each comprising 6 rats. • Oral administration group with 0.3 mg/kg of the test drug suspension • Oral administration group with 3 mg/kg of the test drug suspension • Oral administration group with an α-CD inclusion complex containing 0.3 mg/kg of the test drug • Oral administration group with an α-CD inclusion complex containing 3 mg/kg of the test drug • α-CD oral administration group • Intraperitoneal administration group with 0.3 mg/kg of the test drug
Paclitaxel-induced peripheral nerve disorder rats were prepared in the same manner as in the above 1.[1](2). The compound 4 was used as a test drug and, after 39 days from the initiation of the administration of paclitaxel, it was orally administered in a single dose where the dose calculated as a test drug became 0.3 mg/kg or 3 mg/kg to oral administration groups with the test drug suspension or to oral administration groups with an α-CD inclusion complex containing the test drug while, to an intraperitoneal administration group with the test drug, it was intraperitoneally administered in a single dose of 0.3 mg/kg. Further, to an α-CD Oral administration group, an α-CD solution was orally administered in a single dose of 15 mg/kg.
A von Frey test was conducted in the same manner as in the above 1.[1](4) using the rats mentioned in the above (2) and 50% reaction threshold values in each group were measured before initiating the administration of a test drug and after 1, 5 and 24 hours. Further, AUC (area of the part surrounded by a curve and an abscissa axis (a time axis) in a graph showing the 50% reaction threshold value over time from administration of the test drug) was calculated and the relative ratio of each group was calculated where the AUC of the intraperitoneal administration group with 0.3 mg/kg of the test drug was adopted as 100.

[2] = tested on: oxaliplatin-induced peripheral nerve disorder rats; assay: Repeated intraperitoneal administration, hyperalgesia by oxaliplatin (von Frey test); assay type: in vivo, rat
Protocol: With regard to male SD rats of six weeks age used as the experimental animals, their 50% reaction threshold values to mechanical stimulus and body weights were measured and then the following seven groups each comprising 8 rats was organized. • Normal control group • Onset control group • Prophylactic administration group with 0.25 mg/kg/day of a test drug • Prophylactic administration group with 0.50 mg/kg/day of a test drug • Therapeutic administration group with 0.25 mg/kg/day of a test drug • Therapeutic administration group with 0.50 mg/kg/day of a test drug • Therapeutic administration group with 10 mg/kg/day of pregabalin (positive control)
To the rats of each of the above groups except the normal control group was intraperitoneally administered an oxaliplatin solution dissolved in glucose injection to an extent of 4 mg/mL in a dose of 4 mg/kg twice weekly for four weeks being eight times in total whereupon the oxaliplatin-induced peripheral nerve disorder rats were prepared. To the normal control group, glucose injection was administered similarly.
To prophylactic administration groups of a test drug, a test drug (the compound 4) in a dose of 0.25 mg/kg/day or 0.50 mg/kg/day was repeatedly administered intraperitoneally since immediately after initiation of administration of oxaliplatin until 27 days thereafter. Meanwhile, to a therapeutic administration group of a test drug and to a therapeutic administration group of pregabalin, a test drug (the compound 4) in a dose of 0.25 mg/kg/day or 0.50 mg/kg/day was repeatedly administered intraperitoneally during the period of from 14 days to 27 days after initiation of the administration of oxaliplatin and, pregabalin was administered orally in repeated dose of 10 mg/kg/day during the same period.
A von Frey test was conducted in the same manner as in the above 1.[1](4) using the seven groups of rats mentioned in the above (1). 50% reaction threshold values in each group were measured before initiating the administration of oxaliplatin and after 7, 14, 21, 28, 33 and 40 days from the initiation of the administration. Mean value ± standard error for each group was calculated and the test for significant difference was conducted in the same manner as in the above 1.[1](4).

[3] = oral 0.3 mg/kg, test drug suspension
[4] = oral 3 mg/kg, test drug suspension

CCCCCCC/C=C/C(=O)OCC [Compound 4, Trans-2-decenoic acid ethyl ester]
50% reaction threshold value, after 5 hours from administration ([1]; intraperitoneal 0.3 mg/kg): 8.57
AUC of 50% reaction threshold value over time, measured value ([1]; intraperitoneal 0.3 mg/kg): 74.59
50% reaction threshold value, before administration ([1]; intraperitoneal 0.3 mg/kg): 4.58
AUC relative ratio ([1]; intraperitoneal 0.3 mg/kg, this group adopted as 100): 100
50% reaction threshold value, after 5 hours from administration [1, 3]: 6.00
AUC of 50% reaction threshold value over time, measured value [1, 3]: 31.83
AUC relative ratio ([1]; oral 0.3 mg/kg, test drug suspension, AUC of i.p. 0.3 mg/kg group = 100): 43
50% reaction threshold value, before administration [1, 3]: 4.57
50% reaction threshold value, after 5 hours from administration [1, 4]: 8.66
AUC of 50% reaction threshold value over time, measured value [1, 4]: 54.99
AUC relative ratio ([1]; oral 3 mg/kg, test drug suspension, AUC of i.p. 0.3 mg/kg group = 100): 74
50% reaction threshold value, before administration [1, 4]: 4.57
effect of suppressing the hyperalgesia after completion of the repeated administration ([2]; oxaliplatin model, repeated i.p. 0.25 or 0.50 mg/kg/day): still continued
50% reaction threshold values to the mechanical stimulus vs onset control group ([2]; prophylactic i.p. 0.25 mg/kg/day until 27 days, from 21 days to 28 days after oxaliplatin): significantly high
50% reaction threshold values to the mechanical stimulus vs onset control group ([2]; prophylactic i.p. 0.5 mg/kg/day until 27 days, from 21 days to 33 days after oxaliplatin): significantly high
50% reaction threshold values to the mechanical stimulus vs onset control group ([2]; therapeutic i.p. 0.25 mg/kg/day (days 14-27), after 28 days from oxaliplatin): significantly high
50% reaction threshold values to the mechanical stimulus vs onset control group ([2]; therapeutic i.p. 0.5 mg/kg/day (days 14-27), from 21 days to 33 days after oxaliplatin): significantly high
